Laboratory results as given in US20260022142A1, “MACROCYCLIC IMMUNOMODULATORS” (Bristol-Myers Squibb Company, priority 2022, published 2026).
Bridge positions count the residues as written; N and C are the ends. Square brackets hold non-standard residues; d marks the D form. Peptide text beside a SMILES is read from it. * marks the point of attachment. ξ: configuration not given here. Phe(4-COOH) = N[C@@H](Cc1ccc(C(=O)O)cc1)C(=O)O; Bip = N[C@@H](Cc1ccc(-c2ccccc2)cc1)C(=O)O; Phe(3-Me) = Cc1cccc(C[C@H](N)C(=O)O)c1; Cha = N[C@@H](CC1CCCCC1)C(=O)O; Carboxymethyl = O=C(O)C*; Orn = NCCC[C@H](N)C(=O)O; Aun = NCCCCCCCCCCC(=O)O; Dab = NCC[C@H](N)C(=O)O; Dap = NC[C@H](N)C(=O)O; AEEA = NCCOCCOCC(=O)O; ξDab = NCCC(N)C(=O)O

These molecules were tested against T1, PD-1/PD-L1 interaction (PE-labeled human PD-L1-Ig binding to Jurkat cell line over-expressing human PD-1) (Homo sapiens, UniProt Q15116) (assay: Jurkat-PD-1 Cell Binding High-Content Screening Assay (CBA)). Details: Jurkat cell line over-expressing human PD-1; PE-labeled PD-L1-Ig 20 nM final; read-out: Jurkat hPD1-PDL1 IC50.
T1 construct: expressed in transfected cells; host or cells: Jurkat
Format: cell-based
Summary of the method: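 Jurkat cells stably over-expressing human PD-1 were seeded in DMEM with 10% fetal calf serum and pre-incubated with compound for 2 h at 37° C. PE-labeled human PD-L1-Ig was then added at 20 nM final for 1 hour, after which cells were fixed with paraformaldehyde, Hoechst-stained and imaged by high-content microscopy.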

T1 sequence (Q15116 25-288): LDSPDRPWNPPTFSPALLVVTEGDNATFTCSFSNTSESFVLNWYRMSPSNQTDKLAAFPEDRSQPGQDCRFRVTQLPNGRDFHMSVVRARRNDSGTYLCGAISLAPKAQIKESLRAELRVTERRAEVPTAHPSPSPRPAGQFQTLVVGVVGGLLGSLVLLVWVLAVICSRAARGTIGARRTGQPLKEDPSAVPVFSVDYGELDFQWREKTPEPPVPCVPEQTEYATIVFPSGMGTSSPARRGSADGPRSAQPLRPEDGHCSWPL

Question: With `CC(C)C[C@H]1NC(=O)[C@H](CCCN)NC(=O)[C@H](Cc2ccc(O)cc2)NC(=O)[C@H](Cc2ccc(-c3ccccc3)cc2)NC(=O)[C@H](Cc2ccc(O)cc2)NC(=O)[C@H](Cc2c[nH]c3ccccc23)NC(=O)[C@H](CC(=O)O)NC(=O)[C@H](Cc2ccc(C(=O)O)cc2)NC(=O)[C@H](Cc2ccc(OCC(=O)O)cc2)NC(=O)CSC[C@@H](C(=O)N[C@@H](CCN)C(=O)NCCCCCCCCCCC(=O)O)NC(=O)[C@H](CCCCN)NC(=O)[C@H](Cc2ccc(O)cc2)NC(=O)[C@H](CC2CCCCC2)NC(=O)[C@H](CCN)NC1=O` [Compound 2507] ({CH2CO}-Y(Carboxymethyl)[Phe(4-COOH)]DWY[Bip]Y[Orn][dL][Dab][Cha]YKC[Dab][Aun]-OH; thioether N-14) as the molecule, how does the IC50 read?
Answer: 72.1 nM

Question: For `CC(C)C[C@H]1NC(=O)[C@H](CCCN)NC(=O)[C@H](Cc2ccc(O)cc2)NC(=O)[C@H](Cc2ccc(-c3ccccc3)cc2)NC(=O)[C@H](Cc2ccc(O)cc2)NC(=O)[C@H](Cc2c[nH]c3ccccc23)NC(=O)[C@H](CC(=O)O)NC(=O)[C@H](Cc2ccc(OCC(=O)O)cc2)NC(=O)[C@H](Cc2ccc(OCC(=O)O)cc2)NC(=O)CSC[C@@H](C(=O)NC(CCN)C(=O)NCCCCCCCCCCC(=O)O)NC(=O)[C@H](CCCNC(=N)N)NC(=O)[C@H](Cc2ccc(O)cc2)NC(=O)[C@H](CC2CCCCC2)NC(=O)[C@H](CCN)NC1=O` (stereo partly drawn) [Compound 2508] ({CH2CO}-Y(Carboxymethyl)Y(Carboxymethyl)DWY[Bip]Y[Orn][dL][Dab][Cha]YRC[ξDab][Aun]-OH; thioether N-14), which IC50 is on record?
Answer: 132 nM

Question: For `CC(C)C[C@H]1NC(=O)[C@H](CCCN)NC(=O)[C@H](Cc2ccc(O)cc2)NC(=O)[C@H](Cc2ccc(-c3ccccc3)cc2)NC(=O)[C@H](Cc2ccc(O)cc2)NC(=O)[C@H](Cc2c[nH]c3ccccc23)NC(=O)[C@H](CC(=O)O)NC(=O)[C@H](Cc2ccc(OCC(=O)O)cc2)NC(=O)[C@H](CN)NC(=O)CSC[C@@H](C(=O)N[C@@H](CCN)C(=O)NCCCCCCCCCCC(=O)O)NC(=O)[C@H](CCCCN)NC(=O)[C@H](Cc2ccc(O)cc2)NC(=O)[C@H](CC2CCCCC2)NC(=O)[C@H](CCN)NC1=O` [Compound 2509] ({CH2CO}-[Dap]Y(Carboxymethyl)DWY[Bip]Y[Orn][dL][Dab][Cha]YKC[Dab][Aun]-OH; thioether N-14), which IC50 is on record?
Answer: 59.8 nM

Question: For `Cc1cccc(C[C@@H]2NC(=O)[C@H](CC(=O)O)NC(=O)[C@H](Cc3ccc(OCC(=O)O)cc3)NC(=O)[C@H](CN)NC(=O)CSC[C@@H](C(=O)N[C@@H](CCN)C(=O)NCCCCCCCCCCC(=O)O)NC(=O)[C@H](CN)NC(=O)[C@H](Cc3ccc(O)cc3)NC(=O)[C@H](CC3CCCCC3)NC(=O)[C@H](CCN)NC(=O)[C@@H](CC(C)C)NC(=O)[C@H](CCCN)NC(=O)[C@H](Cc3ccc(O)cc3)NC(=O)[C@H](Cc3ccc(-c4ccccc4)cc3)NC(=O)[C@H](Cc3ccc(O)cc3)NC2=O)c1` [Compound 2510] ({CH2CO}-[Dap]Y(Carboxymethyl)D[Phe(3-Me)]Y[Bip]Y[Orn][dL][Dab][Cha]Y[Dap]C[Dab][Aun]-OH; thioether N-14), which IC50 is on record?
Answer: 65 nM

Question: With `Cc1cccc(C[C@@H]2NC(=O)[C@H](CC(=O)O)NC(=O)[C@H](Cc3ccc(OCC(=O)O)cc3)NC(=O)[C@H](CN)NC(=O)CSC[C@@H](C(=O)N[C@@H](CCN)C(=O)NCCCCCCCCCCC(=O)O)NC(=O)[C@H](CCCN)NC(=O)[C@H](Cc3ccc(O)cc3)NC(=O)[C@H](CC3CCCCC3)NC(=O)[C@H](CCN)NC(=O)[C@@H](CC(C)C)NC(=O)[C@H](CCCN)NC(=O)[C@H](Cc3ccc(O)cc3)NC(=O)[C@H](Cc3ccc(-c4ccccc4)cc3)NC(=O)[C@H](Cc3ccc(O)cc3)NC2=O)c1` [Compound 2511] ({CH2CO}-[Dap]Y(Carboxymethyl)D[Phe(3-Me)]Y[Bip]Y[Orn][dL][Dab][Cha]Y[Orn]C[Dab][Aun]-OH; thioether N-14) as the molecule, how does the IC50 read?
Answer: 50.1 nM

Question: For `Cc1cccc(C[C@@H]2NC(=O)[C@H](CC(=O)O)NC(=O)[C@H](Cc3ccc(OCC(=O)O)cc3)NC(=O)[C@H](CN)NC(=O)CSC[C@@H](C(=O)N[C@@H](CCN)C(=O)NCCCCCCCCCCC(=O)O)NC(=O)[C@H](CCCNC(=N)N)NC(=O)[C@H](Cc3ccc(O)cc3)NC(=O)[C@H](CC3CCCCC3)NC(=O)[C@H](CCN)NC(=O)[C@@H](CC(C)C)NC(=O)[C@H](CCCN)NC(=O)[C@H](Cc3ccc(O)cc3)NC(=O)[C@H](Cc3ccc(-c4ccccc4)cc3)NC(=O)[C@H](Cc3ccc(O)cc3)NC2=O)c1` [Compound 2512] ({CH2CO}-[Dap]Y(Carboxymethyl)D[Phe(3-Me)]Y[Bip]Y[Orn][dL][Dab][Cha]YRC[Dab][Aun]-OH; thioether N-14), which IC50 is on record?
Answer: 33.4 nM

Question: Which IC50 does the source give for `CC(C)C[C@H]1NC(=O)[C@H](CCCN)NC(=O)[C@H](Cc2ccc(O)cc2)NC(=O)[C@H](Cc2ccc(-c3ccccc3)cc2)NC(=O)[C@H](Cc2ccc(O)cc2)NC(=O)[C@H](Cc2c[nH]c3ccccc23)NC(=O)[C@H](CC(=O)O)NC(=O)[C@H](Cc2ccc(OCC(=O)O)cc2)NC(=O)[C@H](Cc2ccc(OCC(=O)O)cc2)NC(=O)CSC[C@@H](C(=O)N[C@@H](CCN)C(=O)NCCCCCCCCCCC(=O)O)NC(=O)[C@H](CCCN)NC(=O)[C@H](Cc2ccc(O)cc2)NC(=O)[C@H](CC2CCCCC2)NC(=O)[C@H](CCN)NC1=O` [Compound 2513] ({CH2CO}-Y(Carboxymethyl)Y(Carboxymethyl)DWY[Bip]Y[Orn][dL][Dab][Cha]Y[Orn]C[Dab][Aun]-OH; thioether N-14) here?
Answer: 81.3 nM

Question: With `CC(C)C[C@H]1NC(=O)[C@H](CCCN)NC(=O)[C@H](Cc2ccc(O)cc2)NC(=O)[C@H](Cc2ccc(-c3ccccc3)cc2)NC(=O)[C@H](Cc2ccc(O)cc2)NC(=O)[C@H](Cc2c[nH]c3ccccc23)NC(=O)[C@H](CC(=O)O)NC(=O)[C@H](Cc2ccc(OCC(=O)O)cc2)NC(=O)[C@H](Cc2ccc(OCC(=O)O)cc2)NC(=O)CSC[C@@H](C(=O)N[C@@H](CCN)C(=O)NCCCCCCCCCCC(=O)O)NC(=O)[C@H](CN)NC(=O)[C@H](Cc2ccc(O)cc2)NC(=O)[C@H](CC2CCCCC2)NC(=O)[C@H](CCN)NC1=O` [Compound 2514] ({CH2CO}-Y(Carboxymethyl)Y(Carboxymethyl)DWY[Bip]Y[Orn][dL][Dab][Cha]Y[Dap]C[Dab][Aun]-OH; thioether N-14) as the molecule, how does the IC50 read?
Answer: 49.7 nM

Question: With `CC(C)C[C@H]1NC(=O)[C@H](CCCN)NC(=O)[C@H](Cc2ccc(O)cc2)NC(=O)[C@H](Cc2ccc(-c3ccccc3)cc2)NC(=O)[C@H](Cc2ccc(O)cc2)NC(=O)[C@H](Cc2c[nH]c3ccccc23)NC(=O)[C@H](CC(=O)O)NC(=O)[C@H](Cc2ccc(C(=O)O)cc2)NC(=O)[C@H](Cc2ccc(OCC(=O)O)cc2)NC(=O)CSC[C@@H](C(=O)NCCOCCOCC(=O)NCCCCCCCCCCC(=O)O)NC(=O)[C@H](CCCCN)NC(=O)[C@H](Cc2ccc(O)cc2)NC(=O)[C@H](CC2CCCCC2)NC(=O)[C@H](CCN)NC1=O` [Compound 2515] ({CH2CO}-Y(Carboxymethyl)[Phe(4-COOH)]DWY[Bip]Y[Orn][dL][Dab][Cha]YKC[AEEA][Aun]-OH; thioether N-14) as the molecule, how does the IC50 read?
Answer: 40.4 nM

Question: `CC(C)C[C@H]1NC(=O)[C@H](CCCN)NC(=O)[C@H](Cc2ccc(O)cc2)NC(=O)[C@H](Cc2ccc(-c3ccccc3)cc2)NC(=O)[C@H](Cc2ccc(O)cc2)NC(=O)[C@H](Cc2c[nH]c3ccccc23)NC(=O)[C@H](CC(=O)O)NC(=O)[C@H](Cc2ccc(OCC(=O)O)cc2)NC(=O)[C@H](Cc2ccc(OCC(=O)O)cc2)NC(=O)CSC[C@@H](C(=O)NCCOCCOCC(=O)NCCCCCCCCCCC(=O)O)NC(=O)[C@H](CCCNC(=N)N)NC(=O)[C@H](Cc2ccc(O)cc2)NC(=O)[C@H](CC2CCCCC2)NC(=O)[C@H](CCN)NC1=O` [Compound 2516] ({CH2CO}-Y(Carboxymethyl)Y(Carboxymethyl)DWY[Bip]Y[Orn][dL][Dab][Cha]YRC[AEEA][Aun]-OH; thioether N-14) was tested. Which IC50 did it give?
Answer: 126 nM

Question: Which IC50 does the source give for `CC(C)C[C@H]1NC(=O)[C@H](CCCN)NC(=O)[C@H](Cc2ccc(O)cc2)NC(=O)[C@H](Cc2ccc(-c3ccccc3)cc2)NC(=O)[C@H](Cc2ccc(O)cc2)NC(=O)[C@H](Cc2c[nH]c3ccccc23)NC(=O)[C@H](CC(=O)O)NC(=O)[C@H](Cc2ccc(OCC(=O)O)cc2)NC(=O)[C@H](CN)NC(=O)CSC[C@@H](C(=O)NCCOCCOCC(=O)NCCCCCCCCCCC(=O)O)NC(=O)[C@H](CCCCN)NC(=O)[C@H](Cc2ccc(O)cc2)NC(=O)[C@H](CC2CCCCC2)NC(=O)[C@H](CCN)NC1=O` [Compound 2517] ({CH2CO}-[Dap]Y(Carboxymethyl)DWY[Bip]Y[Orn][dL][Dab][Cha]YKC[AEEA][Aun]-OH; thioether N-14) here?
Answer: 274 nM

Question: `Cc1cccc(C[C@@H]2NC(=O)[C@H](CC(=O)O)NC(=O)[C@H](Cc3ccc(OCC(=O)O)cc3)NC(=O)[C@H](CN)NC(=O)CSC[C@@H](C(=O)NCCOCCOCC(=O)NCCCCCCCCCCC(=O)O)NC(=O)[C@H](CN)NC(=O)[C@H](Cc3ccc(O)cc3)NC(=O)[C@H](CC3CCCCC3)NC(=O)[C@H](CCN)NC(=O)[C@@H](CC(C)C)NC(=O)[C@H](CCCN)NC(=O)[C@H](Cc3ccc(O)cc3)NC(=O)[C@H](Cc3ccc(-c4ccccc4)cc3)NC(=O)[C@H](Cc3ccc(O)cc3)NC2=O)c1` [Compound 2518] ({CH2CO}-[Dap]Y(Carboxymethyl)D[Phe(3-Me)]Y[Bip]Y[Orn][dL][Dab][Cha]Y[Dap]C[AEEA][Aun]-OH; thioether N-14) was tested. Which IC50 did it give?
Answer: 207 nM

Question: For `Cc1cccc(C[C@@H]2NC(=O)[C@H](CC(=O)O)NC(=O)[C@H](Cc3ccc(OCC(=O)O)cc3)NC(=O)[C@H](CN)NC(=O)CSC[C@@H](C(=O)NCCOCCOCC(=O)NCCCCCCCCCCC(=O)O)NC(=O)[C@H](CCCN)NC(=O)[C@H](Cc3ccc(O)cc3)NC(=O)[C@H](CC3CCCCC3)NC(=O)[C@H](CCN)NC(=O)[C@@H](CC(C)C)NC(=O)[C@H](CCCN)NC(=O)[C@H](Cc3ccc(O)cc3)NC(=O)[C@H](Cc3ccc(-c4ccccc4)cc3)NC(=O)[C@H](Cc3ccc(O)cc3)NC2=O)c1` [Compound 2519] ({CH2CO}-[Dap]Y(Carboxymethyl)D[Phe(3-Me)]Y[Bip]Y[Orn][dL][Dab][Cha]Y[Orn]C[AEEA][Aun]-OH; thioether N-14), which IC50 is on record?
Answer: 152 nM
